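How tested: cells in 96-well plates exposed to compound for 48 hours at five concentrations. GI50 marks 50% less growth.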 Activity calls are given as the source filed them. No stated cut-off is given here; in the data, active = GI50 up to about 1.1 µM and inactive = higher.
Tests used:
Test in all cases: NCI-60 cell line screen, 48 h
[1] = tested on: Hs-578T
[2] = tested on: HL-60
[3] = tested on: HCT-116
[4] = tested on: MDA-N
[5] = tested on: KM12
[6] = tested on: SK-OV-3
[7] = tested on: SK-MEL-5
[8] = tested on: HOP-92
[9] = tested on: SF-295
[10] = tested on: NCI/ADR-RES
[11] = tested on: COLO 205
[12] = tested on: A498
[13] = tested on: HCT-15
[14] = tested on: HT-29
[15] = tested on: UACC-257
[16] = tested on: OVCAR-3
[17] = tested on: OVCAR-5
[18] = tested on: MDA-MB-435
[19] = tested on: SF-539
[20] = tested on: SK-MEL-28
[21] = tested on: BT-549
[22] = tested on: EKVX
[23] = tested on: OVCAR-4
[24] = tested on: SK-MEL-2
[25] = tested on: MCF7
[26] = tested on: SNB-19
[27] = tested on: CCRF-CEM
[28] = tested on: Malme-3M
[29] = tested on: M14
[30] = tested on: DU-145
[31] = tested on: T47D
[32] = tested on: SW-620
[33] = tested on: SN12C
[34] = tested on: HCC 2998
[35] = tested on: A549
[36] = tested on: LOX IMVI
[37] = tested on: HOP-62
[38] = tested on: NCI-H23
[39] = tested on: MOLT-4
[40] = tested on: UACC-62
[41] = tested on: SR
[42] = tested on: OVCAR-8
[43] = tested on: UO-31
[44] = tested on: MDA-MB-231
[45] = tested on: 786-0
[46] = tested on: SF-268
[47] = tested on: ACHN
[48] = tested on: RXF 393
[49] = tested on: CAKI-1
[50] = tested on: TK-10
[51] = tested on: PC-3
[52] = tested on: U-251
[53] = tested on: NCI-H460
[54] = tested on: NCI-H522
[55] = tested on: SNB-75
[56] = tested on: NCI-H226
[57] = tested on: K562
[58] = tested on: IGROV-1
[59] = tested on: RPMI-8226

Q: With CSC(=NC1=NC(C(F)(F)F)(C(F)(F)F)N=C(c2ccccc2)O1)SC as the compound, how does the GI50 [1] read?
A: 14.2 µM (inactive)

Q: And the GI50 [2]?
A: 30.9 µM (inactive)

Q: What about the GI50 [3] of the same compound?
A: 4.01 µM (inactive)

Q: What about the GI50 [4] of the same compound?
A: 17.3 µM (inactive)

Q: What about the GI50 [5] of the same compound?
A: 4.91 µM (inactive)

Q: And the GI50 [6]?
A: 16.4 µM (inactive)

Q: What about the GI50 [7] of the same compound?
A: 16.1 µM (inactive)

Q: And the GI50 [8]?
A: 7.8 µM (inactive)

Q: And the GI50 [9]?
A: 7.13 µM (inactive)

Q: What about the GI50 [10] of the same compound?
A: 5.31 µM (inactive)

Q: And the GI50 [11]?
A: 14.6 µM (inactive)

Q: What about the GI50 [12] of the same compound?
A: 17.7 µM (inactive)

Q: What about the GI50 [13] of the same compound?
A: 4.88 µM

Q: And the GI50 [14]?
A: 16.4 µM (inactive)

Q: What about the GI50 [15] of the same compound?
A: 22 µM (inactive)

Q: And the GI50 [16]?
A: 7.46 µM (inactive)

Q: What about the GI50 [17] of the same compound?
A: 26.4 µM (inactive)

Q: What about the GI50 [18] of the same compound?
A: 17.5 µM (inactive)

Q: What about the GI50 [19] of the same compound?
A: 29.2 µM (inactive)

Q: What about the GI50 [20] of the same compound?
A: 38.7 µM (inactive)

Q: What about the GI50 [21] of the same compound?
A: 10.8 µM (inactive)

Q: And the GI50 [22]?
A: 9.27 µM (inactive)

Q: What about the GI50 [23] of the same compound?
A: 10.3 µM (inactive)

Q: What about the GI50 [24] of the same compound?
A: 16 µM (inactive)

Q: And the GI50 [25]?
A: 14.8 µM (inactive)

Q: What about the GI50 [26] of the same compound?
A: 5.22 µM (inactive)

Q: What about the GI50 [27] of the same compound?
A: 6.92 µM (inactive)

Q: What about the GI50 [28] of the same compound?
A: 16.3 µM (inactive)

Q: And the GI50 [29]?
A: 19 µM (inactive)

Q: What about the GI50 [30] of the same compound?
A: 6.9 µM (inactive)

Q: What about the GI50 [31] of the same compound?
A: 3.1 µM (inactive)

Q: And the GI50 [32]?
A: 9.38 µM (inactive)

Q: What about the GI50 [33] of the same compound?
A: 17.1 µM (inactive)

Q: What about the GI50 [34] of the same compound?
A: 12.5 µM (inactive)

Q: What about the GI50 [35] of the same compound?
A: 10.5 µM (inactive)

Q: What about the GI50 [36] of the same compound?
A: 5.75 µM (inactive)

Q: What about the GI50 [37] of the same compound?
A: 9.1 µM (inactive)

Q: And the GI50 [38]?
A: 7.31 µM (inactive)

Q: What about the GI50 [39] of the same compound?
A: 6.07 µM (inactive)

Q: And the GI50 [40]?
A: 20 µM (inactive)

Q: What about the GI50 [41] of the same compound?
A: 10.7 µM (inactive)

Q: What about the GI50 [42] of the same compound?
A: 5.98 µM (inactive)

Q: And the GI50 [43]?
A: 24 µM (inactive)

Q: And the GI50 [44]?
A: 20.3 µM (inactive)

Q: What about the GI50 [45] of the same compound?
A: 16.4 µM (inactive)

Q: What about the GI50 [46] of the same compound?
A: 5.07 µM (inactive)

Q: And the GI50 [47]?
A: 3.53 µM (inactive)

Q: What about the GI50 [48] of the same compound?
A: 5.77 µM (inactive)

Q: What about the GI50 [49] of the same compound?
A: 4.49 µM (inactive)

Q: And the GI50 [50]?
A: 7.93 µM (inactive)

Q: What about the GI50 [51] of the same compound?
A: 5.14 µM (inactive)

Q: What about the GI50 [52] of the same compound?
A: 4.12 µM (inactive)

Q: What about the GI50 [53] of the same compound?
A: 12.2 µM (inactive)

Q: And the GI50 [54]?
A: 3.1 µM (inactive)

Q: And the GI50 [55]?
A: 3.15 µM (inactive)

Q: What about the GI50 [56] of the same compound?
A: 26.9 µM (inactive)

Q: And the GI50 [57]?
A: 6.1 µM (inactive)

Q: How did the GI50 [1] turn out when COC(=O)C1(C)CCCC2(C)c3cc(OC)ccc3C(=O)C(Br)C12 (stereo not drawn) was run?
A: > 10 µM (inactive)

Q: And the GI50 [2]?
A: 2.14 µM (inactive)

Q: And the GI50 [58]?
A: > 10 µM (inactive)

Q: And the GI50 [3]?
A: 2.79 µM (inactive)

Q: And the GI50 [4]?
A: 3.81 µM (inactive)

Q: What about the GI50 [5] of the same compound?
A: > 10 µM (inactive)

Q: And the GI50 [6]?
A: > 10 µM (inactive)

Q: And the GI50 [7]?
A: > 10 µM (inactive)

Q: And the GI50 [8]?
A: > 10 µM (inactive)

Q: What about the GI50 [9] of the same compound?
A: > 10 µM (inactive)

Q: What about the GI50 [10] of the same compound?
A: > 10 µM (inactive)

Q: What about the GI50 [11] of the same compound?
A: 2.63 µM (inactive)

Q: And the GI50 [12]?
A: > 10 µM (inactive)

Q: What about the GI50 [13] of the same compound?
A: > 10 µM

Q: What about the GI50 [14] of the same compound?
A: 4.75 µM (inactive)

Q: What about the GI50 [15] of the same compound?
A: > 10 µM (inactive)

Q: And the GI50 [16]?
A: 5.35 µM (inactive)

Q: And the GI50 [17]?
A: 8.02 µM (inactive)

Q: And the GI50 [18]?
A: 4.19 µM (inactive)

Q: What about the GI50 [19] of the same compound?
A: > 10 µM (inactive)

Q: What about the GI50 [20] of the same compound?
A: > 10 µM (inactive)

Q: What about the GI50 [21] of the same compound?
A: > 10 µM (inactive)

Q: What about the GI50 [22] of the same compound?
A: > 10 µM (inactive)

Q: What about the GI50 [24] of the same compound?
A: > 10 µM (inactive)

Q: And the GI50 [25]?
A: 1.95 µM (inactive)

Q: What about the GI50 [26] of the same compound?
A: > 10 µM (inactive)

Q: And the GI50 [27]?
A: 2.29 µM (inactive)

Q: What about the GI50 [28] of the same compound?
A: 2.72 µM (inactive)

Q: And the GI50 [29]?
A: 3.35 µM (inactive)

Q: What about the GI50 [30] of the same compound?
A: > 10 µM (inactive)

Q: What about the GI50 [31] of the same compound?
A: > 10 µM (inactive)

Q: And the GI50 [32]?
A: 2.15 µM (inactive)

Q: What about the GI50 [33] of the same compound?
A: 8.61 µM (inactive)

Q: What about the GI50 [34] of the same compound?
A: > 10 µM (inactive)

Q: And the GI50 [35]?
A: > 10 µM (inactive)

Q: What about the GI50 [36] of the same compound?
A: > 10 µM (inactive)

Q: And the GI50 [37]?
A: > 10 µM (inactive)

Q: What about the GI50 [38] of the same compound?
A: > 10 µM (inactive)

Q: What about the GI50 [39] of the same compound?
A: 1.75 µM (inactive)

Q: What about the GI50 [40] of the same compound?
A: > 10 µM (inactive)

Q: What about the GI50 [41] of the same compound?
A: 2.76 µM (inactive)

Q: And the GI50 [42]?
A: 1.99 µM (inactive)

Q: And the GI50 [43]?
A: 1.84 µM (inactive)

Q: What about the GI50 [44] of the same compound?
A: 3.35 µM (inactive)

Q: What about the GI50 [45] of the same compound?
A: 1.84 µM (inactive)

Q: What about the GI50 [46] of the same compound?
A: > 10 µM (inactive)

Q: And the GI50 [48]?
A: 9.23 µM (inactive)

Q: And the GI50 [59]?
A: 2.24 µM (inactive)

Q: And the GI50 [49]?
A: 4.05 µM (inactive)

Q: And the GI50 [50]?
A: > 10 µM (inactive)

Q: What about the GI50 [51] of the same compound?
A: 9.73 µM (inactive)

Q: And the GI50 [52]?
A: > 10 µM (inactive)

Q: And the GI50 [53]?
A: > 10 µM (inactive)

Q: What about the GI50 [54] of the same compound?
A: 2.86 µM (inactive)

Q: And the GI50 [56]?
A: > 10 µM (inactive)

Q: What about the GI50 [57] of the same compound?
A: 3.68 µM (inactive)

Reference: ChEMBL document CHEMBL1201862, “PubChem BioAssay data set” (2004)
